# Reference: the supplement of paper PMC12317010
# Where a name gives a salt, the structure may show the parent alone.
# Assay: collision cross section in nitrogen (drift tube, single-field); higher = larger gas-phase ion size
# [1] = ion type: [M-H], ion source: ESI, ion mode: Negative
# [2] = ion type: [M+H], ion source: APCI, ion mode: Positive
# [3] = ion type: [M+H], ion source: ESI, ion mode: Positive
# [4] = ion type: [M+Na], ion source: ESI, ion mode: Positive
# [5] = ion type: [M+], ion source: APCI, ion mode: Positive
# 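Further: chemical standards at 10 µM analysed by drift tube IMS-QTOF MS in about 3.95 torr nitrogen, mean of duplicate injections differing ≤1%, mass error below 10 ppm.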
smiles,measurement,setting,value
"Cc1cc(Cc2cc(C)cc(C(C)(C)C)c2O)c(O)c(C(C)(C)C)c1 [2,2'-Methylenebis(4-methyl-6-tert-butylphenol)]",collision cross section in nitrogen,[1],195.4 Å²
"CCc1cc(Cc2cc(CC)cc(C(C)(C)C)c2O)c(O)c(C(C)(C)C)c1 [2,2'-Methylenebis(ethyl-6-tert-butylphenol)]",collision cross section in nitrogen,[1],203.6 Å²
"NCCCN(CCO)CCO [2,2'-[(3-Aminopropyl)imino]diethanol]",collision cross section in nitrogen,[2],132.7 Å²
same,collision cross section in nitrogen,[3],133.5 Å²
same,collision cross section in nitrogen,[4],135.8 Å²
"Cc1ccc(N(CCO)CCO)cc1 [2,2'-[(4-Methylphenyl)imino]diethanol]",collision cross section in nitrogen,[2],141.8 Å²
same,collision cross section in nitrogen,[3],143.4 Å²
same,collision cross section in nitrogen,[4],151 Å²
"NCCOCCOCCN [2,2'-[Ethane-1,2-diylbis(oxy)]diethanamine]",collision cross section in nitrogen,[4],132.4 Å²
"CC(C)C(OC(=O)c1ccccc1)C(C)(C)COC(=O)c1ccccc1 (stereo not given) [2,2,4-Trimethylpentane-1,3-diyl dibenzoate]",collision cross section in nitrogen,[4],194.6 Å²
"CC1(C)CC(N)CC(C)(C)N1 [2,2,6,6-Tetramethylpiperidin-4-amine]",collision cross section in nitrogen,[2],133.5 Å²
same,collision cross section in nitrogen,[3],135.1 Å²
"C=CCOCC(CC)(CO)COCC=C [2,2-Bis[(prop-2-en-1-yloxy)methyl]butan-1-ol]",collision cross section in nitrogen,[4],150 Å²
"COC(OC)(C(=O)c1ccccc1)c1ccccc1 [2,2-Dimethoxy-1,2-diphenylethanone]",collision cross section in nitrogen,[4],170.6 Å²
"CC1(C)Cc2cccc(N)c2O1 [2,2-Dimethyl-2,3-dihydro-1-benzofuran-7-amine]",collision cross section in nitrogen,[2],135.8 Å²
same,collision cross section in nitrogen,[3],135 Å²
"COc1ccc(C(=O)c2ccccc2O)c(O)c1 [2,2′-Dihydroxy-4-methoxybenzophenone]",collision cross section in nitrogen,[1],153.6 Å²
"Oc1ccccc1Cc1ccccc1O [2,2′-Methylenebis[phenol]]",collision cross section in nitrogen,[1],142.9 Å²
"Oc1c(Cl)cc(Cl)c(Cl)c1Cl [2,3,4,6-Tetrachlorophenol]",collision cross section in nitrogen,[1],133.8 Å²
"O=C(c1ccccc1)c1ccc(O)c(O)c1O [2,3,4-Trihydroxbenzophenone]",collision cross section in nitrogen,[1],151.1 Å²
"O=C(O)c1c(Cl)ccc(Cl)c1Cl [2,3,6-Trichlorobenzoic acid]",collision cross section in nitrogen,[1],143.9 Å²
"Oc1c(Cl)ccc(Cl)c1Cl [2,3,6-Trichlorophenol]",collision cross section in nitrogen,[1],128.9 Å²
"Cc1ccc(C)c(O)c1C [2,3,6-Trimethylphenol]",collision cross section in nitrogen,[1],130.9 Å²
"Nc1cccnc1N [2,3-Diaminopyridine]",collision cross section in nitrogen,[3],118.5 Å²
"CC1=CP(=O)(c2ccccc2)CC1 (stereo not given) [2,3-Dihydro-4-methyl-1-phenyl-1H-phosphole 1-oxide]",collision cross section in nitrogen,[2],141.7 Å²
same,collision cross section in nitrogen,[3],141.3 Å²
same,collision cross section in nitrogen,[4],160.6 Å²
same,collision cross section in nitrogen,[5],138 Å²
"Cc1cccc(O)c1C [2,3-Dimethylphenol]",collision cross section in nitrogen,[1],126.6 Å²
"O=C(c1ccc(O)cc1)c1ccc(O)cc1O [2,4,4'-Trihydroxybenzophenone]",collision cross section in nitrogen,[1],152.8 Å²
"CCCCOCCOC(=O)COc1cc(Cl)c(Cl)cc1Cl [2,4,5-T-butotyl]",collision cross section in nitrogen,[4],184.2 Å²
"O=S(=O)(O)c1cc(Cl)c(Cl)cc1Cl [2,4,5-Trichlorobenzenesulfonic acid]",collision cross section in nitrogen,[1],142.8 Å²
"Oc1cc(Cl)c(Cl)cc1Cl [2,4,5-Trichlorophenol sodium salt]",collision cross section in nitrogen,[1],128.6 Å²
"Oc1cc(Cl)c(Cl)cc1Cl [2,4,5-Trichlorophenol]",collision cross section in nitrogen,[1],128.7 Å²
"Oc1c(Br)cc(Br)cc1Br [2,4,6-Tribromophenol]",collision cross section in nitrogen,[1],135.2 Å²
"Oc1c(I)cc(I)cc1I [2,4,6-Triiodophenol]",collision cross section in nitrogen,[5],139.5 Å²
same,collision cross section in nitrogen,[1],143.5 Å²
"Cc1cc(C)c(C(=O)O)c(C)c1 [2,4,6-Trimethylbenzoic acid]",collision cross section in nitrogen,[1],140.5 Å²
"CC(C)(C)c1cc(C(C)(C)C)c(O)c(C(C)(C)C)c1 [2,4,6-Tris(tert-butyl)phenol]",collision cross section in nitrogen,[1],173.2 Å²
"CC(C)(c1ccccc1)c1ccc(O)c(C(C)(C)c2ccccc2)c1 [2,4-Bis(1-methyl-1-phenylethyl)phenol]",collision cross section in nitrogen,[3],171.9 Å²
same,collision cross section in nitrogen,[1],187.8 Å²
"CC(C)Nc1nc(Cl)nc(NC(C)C)n1 [2,4-Bis(isopropylamino)-6-chloro-1,3,5-triazine]",collision cross section in nitrogen,[2],154.9 Å²
same,collision cross section in nitrogen,[3],155.3 Å²
"CCCCOCCOC(=O)COc1ccc(Cl)cc1Cl [2,4-D-Butotyl]",collision cross section in nitrogen,[4],177 Å²
"CC(C)COC(=O)COc1ccc(Cl)cc1Cl [2,4-D-isobutyl]",collision cross section in nitrogen,[4],172.2 Å²
"CC(C)(C)c1ccc(O)c(C(C)(C)C)c1 [2,4-Di-tert-butylphenol]",collision cross section in nitrogen,[1],155.1 Å²
"Nc1ccc(S(=O)(=O)O)c(N)c1 [2,4-Diaminobenzenesulfonic acid]",collision cross section in nitrogen,[1],137.9 Å²
"Cc1ccc(N)cc1N [2,4-Diaminotoluene]",collision cross section in nitrogen,[3],122.3 Å²
"Cc1cc(O)c(Cl)c(C)c1Cl [2,4-Dichloro-3,5-dimethylphenol]",collision cross section in nitrogen,[1],135.4 Å²
"Nc1c(Cl)cc(Cl)cc1[N+](=O)[O-] [2,4-Dichloro-6-nitroaniline]",collision cross section in nitrogen,[1],131.4 Å²
"O=C(Nc1ccc2ccccc2c1)c1ccc(Cl)cc1Cl [2,4-Dichloro-N-(naphthalene-2-yl)benzamide]",collision cross section in nitrogen,[3],171.9 Å²
same,collision cross section in nitrogen,[4],184.5 Å²
"Oc1ccc(Cl)cc1Cl [2,4-Dichlorophenol]",collision cross section in nitrogen,[1],123.6 Å²
"O=C(c1ccccc1)c1ccc(O)cc1O [2,4-Dihydroxybenzophenone]",collision cross section in nitrogen,[1],148.3 Å²
"Oc1ccnc(O)c1 [2,4-Dihydroxypyridine]",collision cross section in nitrogen,[2],119.5 Å²
same,collision cross section in nitrogen,[3],120.2 Å²
same,collision cross section in nitrogen,[1],118.5 Å²
"CC(C)c1ccc(O)c(C(C)C)c1 [2,4-Diisopropylphenol]",collision cross section in nitrogen,[1],146.7 Å²
"Cc1ccc(S(=O)(=O)O)c(C)c1 [2,4-Dimethylbenzenesulfonic acid]",collision cross section in nitrogen,[1],138.3 Å²
"O=[N+]([O-])c1ccc(O)c([N+](=O)[O-])c1 [2,4-Dinitrophenol]",collision cross section in nitrogen,[1],127.8 Å²
